According to patent publication US20210188813A1, “EZH2 INHIBITOR AND PHARMACEUTICALLY ACCEPTABLE SALTS AND POLYMORPHIC SUBSTANCES THEREOF, AND APPLICATION OF EZH2 INHIBITOR” (SHANGHAI HAIYAN PHARMACEUTICAL TECHNOLOGY CO., LTD., priority 2018, published 2021):

Tests used:
[1] = tested on: Pfeiffer cells; assay: Cell proliferation assay, Pfeiffer; type: cell-based; conditions: Homo sapiens, Pfeiffer, 144 h; 6 days' growth, cell counting kit-8
Description: Cell lines Pfeiffer (CRL-2632), suDHL-6 (CRL-2959) and suDHL-10 (CRL-2963) were obtained from ATCC. All cell lines were cultured in RPMI-1640 medium (Gibco) plus 10% FBS (Gibco). Cells are harvested by centrifuge and densities are determined using a CounterStar cell counter. Appropriate number of cells are plated in a96-well culture plate and pre-incubate overnight. Tested compounds are 1:3 diluted for 8-points and added into each well. After 6 days' growth, cell counting kit-8 (Dojindo) is used to detect cell viability and read on Tecan infinite pro. IC50s are counted by XLfit using a four-parameter model.

[2] = molecular target: T1, PRC2 (EZH2-Y641F) (Homo sapiens, UniProt Q15910, Y641F); assay: In vitro methyltransferase assay; type: biochemical
T1 construct: purchased Active motif
T1 sequence (Q15910 whole entry Y641F): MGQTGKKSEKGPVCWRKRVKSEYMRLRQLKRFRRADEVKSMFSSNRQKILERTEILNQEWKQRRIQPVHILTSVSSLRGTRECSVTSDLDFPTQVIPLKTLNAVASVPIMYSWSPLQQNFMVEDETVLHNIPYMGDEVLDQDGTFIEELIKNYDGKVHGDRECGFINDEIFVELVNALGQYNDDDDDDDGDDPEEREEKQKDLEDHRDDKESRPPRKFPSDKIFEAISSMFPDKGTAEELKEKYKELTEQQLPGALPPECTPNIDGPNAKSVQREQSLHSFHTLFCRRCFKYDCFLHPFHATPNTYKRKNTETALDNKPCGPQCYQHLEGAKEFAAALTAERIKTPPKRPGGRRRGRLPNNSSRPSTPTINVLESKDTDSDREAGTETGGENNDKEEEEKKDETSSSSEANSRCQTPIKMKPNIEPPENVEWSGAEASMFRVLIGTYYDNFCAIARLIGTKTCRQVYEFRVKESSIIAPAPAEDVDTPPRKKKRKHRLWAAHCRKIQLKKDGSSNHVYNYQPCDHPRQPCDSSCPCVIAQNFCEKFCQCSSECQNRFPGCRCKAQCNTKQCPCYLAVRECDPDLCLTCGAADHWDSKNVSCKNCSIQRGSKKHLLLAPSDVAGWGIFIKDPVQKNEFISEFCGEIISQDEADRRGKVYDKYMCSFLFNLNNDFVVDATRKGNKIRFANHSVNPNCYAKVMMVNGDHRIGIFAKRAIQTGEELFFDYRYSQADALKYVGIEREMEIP
T1 sequence (O75530 whole entry partner): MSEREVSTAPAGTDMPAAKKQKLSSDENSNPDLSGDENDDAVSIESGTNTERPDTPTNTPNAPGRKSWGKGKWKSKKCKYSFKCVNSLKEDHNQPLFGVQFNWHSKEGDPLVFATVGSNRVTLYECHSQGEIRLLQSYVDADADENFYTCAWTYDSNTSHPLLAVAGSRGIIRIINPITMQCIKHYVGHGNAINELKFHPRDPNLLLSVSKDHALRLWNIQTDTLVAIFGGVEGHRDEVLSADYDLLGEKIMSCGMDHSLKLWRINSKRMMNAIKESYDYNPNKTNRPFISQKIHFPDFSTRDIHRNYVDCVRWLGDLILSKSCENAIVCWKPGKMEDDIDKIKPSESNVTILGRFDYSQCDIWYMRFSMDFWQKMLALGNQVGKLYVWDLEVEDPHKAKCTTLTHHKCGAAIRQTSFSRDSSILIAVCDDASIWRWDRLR
T1 sequence (Q15022 whole entry partner): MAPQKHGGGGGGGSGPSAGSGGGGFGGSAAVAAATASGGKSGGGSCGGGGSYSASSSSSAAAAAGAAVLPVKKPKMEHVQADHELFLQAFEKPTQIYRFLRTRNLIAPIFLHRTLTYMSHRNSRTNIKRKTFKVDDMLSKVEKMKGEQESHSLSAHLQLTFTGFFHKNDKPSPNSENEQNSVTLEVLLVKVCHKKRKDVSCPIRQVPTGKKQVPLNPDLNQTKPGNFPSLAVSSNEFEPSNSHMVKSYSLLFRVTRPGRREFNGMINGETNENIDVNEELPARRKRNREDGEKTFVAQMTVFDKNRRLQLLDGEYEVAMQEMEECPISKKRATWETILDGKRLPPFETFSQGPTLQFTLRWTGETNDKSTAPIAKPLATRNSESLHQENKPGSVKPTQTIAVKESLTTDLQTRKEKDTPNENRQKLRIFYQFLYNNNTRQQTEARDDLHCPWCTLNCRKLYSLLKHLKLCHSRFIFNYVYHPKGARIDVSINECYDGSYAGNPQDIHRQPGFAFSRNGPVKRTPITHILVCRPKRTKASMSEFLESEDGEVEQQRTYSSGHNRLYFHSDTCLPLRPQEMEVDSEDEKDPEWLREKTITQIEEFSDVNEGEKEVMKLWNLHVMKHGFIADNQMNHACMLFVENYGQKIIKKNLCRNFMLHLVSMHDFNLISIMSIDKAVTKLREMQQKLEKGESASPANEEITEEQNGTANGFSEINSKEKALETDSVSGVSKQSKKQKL
T1 sequence (Q09028 whole entry partner): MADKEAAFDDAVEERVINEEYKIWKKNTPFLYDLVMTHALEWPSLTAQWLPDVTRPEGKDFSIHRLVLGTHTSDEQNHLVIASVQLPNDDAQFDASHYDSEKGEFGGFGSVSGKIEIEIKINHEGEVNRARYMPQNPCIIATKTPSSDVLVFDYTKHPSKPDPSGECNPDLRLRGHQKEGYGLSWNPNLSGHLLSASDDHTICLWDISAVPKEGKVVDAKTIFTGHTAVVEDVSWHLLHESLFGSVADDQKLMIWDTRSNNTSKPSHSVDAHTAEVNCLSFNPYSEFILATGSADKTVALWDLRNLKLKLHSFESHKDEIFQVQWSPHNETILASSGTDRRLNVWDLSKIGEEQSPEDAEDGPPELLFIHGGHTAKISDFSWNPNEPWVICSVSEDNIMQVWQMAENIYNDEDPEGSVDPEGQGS
T1 sequence (Q6ZN18 whole entry partner): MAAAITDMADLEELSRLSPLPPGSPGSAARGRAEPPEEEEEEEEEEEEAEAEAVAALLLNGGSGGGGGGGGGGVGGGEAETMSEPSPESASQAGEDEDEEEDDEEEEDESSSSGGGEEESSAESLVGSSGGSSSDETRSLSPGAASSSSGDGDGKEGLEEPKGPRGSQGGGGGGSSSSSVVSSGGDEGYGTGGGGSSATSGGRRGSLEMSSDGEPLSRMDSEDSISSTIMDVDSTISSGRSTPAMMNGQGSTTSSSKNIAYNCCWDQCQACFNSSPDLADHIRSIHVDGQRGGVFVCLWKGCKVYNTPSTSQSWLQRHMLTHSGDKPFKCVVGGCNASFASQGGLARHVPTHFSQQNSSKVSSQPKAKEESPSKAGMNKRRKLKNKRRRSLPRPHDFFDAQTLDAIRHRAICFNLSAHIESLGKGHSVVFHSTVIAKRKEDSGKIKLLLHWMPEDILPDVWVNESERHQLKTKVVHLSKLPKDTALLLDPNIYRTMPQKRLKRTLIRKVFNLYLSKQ
Description: Recombinant PRC2 (EZH2-Y641F) was purchased from Active motif, S-adenosyl-methionin chloride (SAM) and Poly-L-lysine (PLL) were purchased from Sigma-Aldrich, H3(1-50)K27me1 peptide was purchased from Cisbio. LANCEUltra (Perkinelmer) system was used for detection. For the enzyme activity test, tested compounds are 1:3 diluted for 8-points, and added into each well, then 100 ng enzyme is added. And then the buffer [20 mM Tris pH8.5, 2 mM MgCl2, 0.01% Tween-20, 1 mM TCEP] containing […]/250 nM H3 (1-50)K27me1 premixtures are added. After 3 hours enzyme reaction at RT, the premixed detection buffer (PLL, Europium antibody and Ulight) is added, and react for 1 h at RT, then read fluorescence on Tecan infinite pro. IC50s are counted by XLfit using a four-parameter model.

[3] = Solid state stability experiment; type: physicochemical
Description: Detected changes in crystal form and purity at 4 and 7 days.

[4] = Dynamic solubility experiment; type: physicochemical; conditions: for Solubility: room temperature, 24 h
Excerpt: The free base samples and the two crystal forms were plotted separately in the experiment.

[5] = 60° C. and 40° C./75% RH, 4 and 7 days

## CCN(c1cc(C(=O)NCc2c(C)cc(C)[nH]c2=O)c(C)c2c1cnn2C)C1CCOCC1 [D1, N-((4,6-dimethyl-2-oxo-1,2-dihydropyridin-3-yl)methyl)-4-(ethyl (tetrahydro-2H-pyran-4-yl)amino)-1,7-dimethyl-1H-indazole-6-carboxamide]
[1]
  IC50: > 10 µM
[2]
  IC50: > 10 µM

## CCN(c1cc(C(=O)NCc2c(C)cc(C)[nH]c2=O)c(C)c2c1cnn2C)C1CCN(CC(F)(F)F)CC1 [D4]
[1]
  IC50: > 3 µM
[2]
  IC50: > 10 µM

## CCN(c1cc(C(=O)NCc2c(C)cc(C)[nH]c2=O)c(C)c2c1cnn2C)C1CCC(N2CC(OC)C2)CC1 (stereo not drawn) [D3]
[1]
  IC50: > 3 µM
[2]
  IC50: > 10 µM

## CCN(c1cc(C(=O)NCc2c(C)cc(C)[nH]c2=O)c(C)c2c1cnn2C)C1CCC(N(C)C)CC1 (stereo not drawn) [D2]
[1]
  IC50: > 3 µM
[2]
  IC50: 4.82 µM

## CCc1c(C(=O)NCc2c(C)cc(C)[nH]c2=O)cc2c(cnn2C)c1N(CC)[C@H]1CC[C@H](N2CC(OC)C2)CC1.O=C(O)/C=C\C(=O)O [Crystal form B]
[3]; 4° C. 0 d
  Content (%): 96.94%
  Properties: Off-white
  RRT(%) 0.86: 0.19%
  RRT(%) 0.89: 0.09%
  RRT(%) 0.92: 0.05%
  RRT(%) 0.94: 0.17%
  RRT(%) 1.04: 0.51%
  RRT(%) 1.07: 0.43%
  RRT(%) 1.10: 0.38%
  RRT(%) 1.13: 0.21%
  RRT(%) 1.15: 0.40%
  RRT(%) 1.16: 0.64%
  Total impurities (%): 3.06%
[3]; 40° C./75% RH 4 d
  Content (%): 96.88%
  Properties: Off-white
  RRT(%) 0.86: 0.20%
  RRT(%) 0.89: 0.08%
  RRT(%) 0.92: 0.05%
  RRT(%) 0.94: 0.16%
  RRT(%) 1.04: 0.45%
  RRT(%) 1.07: 0.40%
  RRT(%) 1.10: 0.47%
  RRT(%) 1.13: 0.20%
  RRT(%) 1.15: 0.41%
  RRT(%) 1.16: 0.63%
  RRT(%) 1.20: 0.07%
  Total impurities (%): 3.12%
[3]; 40° C./75% RH 7 d
  Content (%): 96.95%
  Properties: Off-white
  RRT(%) 0.86: 0.25%
  RRT(%) 0.89: 0.07%
  RRT(%) 0.92: 0.05%
  RRT(%) 0.94: 0.16%
  RRT(%) 1.04: 0.45%
  RRT(%) 1.07: 0.41%
  RRT(%) 1.10: 0.44%
  RRT(%) 1.13: 0.20%
  RRT(%) 1.15: 0.41%
  RRT(%) 1.16: 0.63%
  Total impurities (%): 3.05%
[3]; 60° C. 4 d
  Content (%): 97.34%
  Properties: Off-white
  RRT(%) 0.86: 0.14%
  RRT(%) 0.89: 0.06%
  RRT(%) 0.94: 0.26%
  RRT(%) 1.04: 0.36%
  RRT(%) 1.07: 0.43%
  RRT(%) 1.10: 0.32%
  RRT(%) 1.13: 0.13%
  RRT(%) 1.15: 0.39%
  RRT(%) 1.16: 0.59%
  Total impurities (%): 2.66%
[3]; 60° C. 7 d
  Content (%): 97.30%
  Properties: Off-white
  RRT(%) 0.86: 0.16%
  RRT(%) 0.89: 0.05%
  RRT(%) 0.94: 0.29%
  RRT(%) 1.04: 0.35%
  RRT(%) 1.07: 0.44%
  RRT(%) 1.10: 0.29%
  RRT(%) 1.13: 0.13%
  RRT(%) 1.15: 0.40%
  RRT(%) 1.16: 0.60%
  Total impurities (%): 2.70%
[3]; [5]
  change in crystal form on storage: the crystal form has not changed
  solid state stability: good stability
[4]; 0.1M HCl
  Phenomenon: clear
  Solubility: ≥30.4 mg/mL
[4]; H2O
  Final pH: 5.06
  Phenomenon: turbid
  Solubility: 3.13 mg/mL
[4]; pH 4.5 buffer
  Final pH: 4.91
  Phenomenon: clear
  Solubility: ≥3.07 mg/mL
[4]; pH 6.8 buffer
  Final pH: 6.53
  Phenomenon: clear
  Solubility: ≥3.72 mg/mL

## CCc1c(C(=O)NCc2c(C)cc(C)[nH]c2=O)cc2c(cnn2C)c1N(CC)[C@H]1CC[C@H](N2CC(OC)C2)CC1.Cl [Crystal form A]
[3]; 4° C. 0 d
  Content (%): 96.62%
  Properties: Dark yellow
  RRT(%) 0.86: 0.21%
  RRT(%) 0.89: 0.11%
  RRT(%) 0.94: 0.31%
  RRT(%) 0.97: 0.09%
  RRT(%) 1.04: 0.42%
  RRT(%) 1.07: 0.67%
  RRT(%) 1.10: 0.42%
  RRT(%) 1.13: 0.18%
  RRT(%) 1.15: 0.38%
  RRT(%) 1.16: 0.60%
  Total impurities (%): 3.38%
[3]; 40° C./75% RH 4 d
  Content (%): 96.34%
  Properties: Dark yellow
  RRT(%) 0.86: 0.21%
  RRT(%) 0.89: 0.09%
  RRT(%) 0.94: 0.28%
  RRT(%) 0.97: 0.09%
  RRT(%) 1.04: 0.49%
  RRT(%) 1.07: 0.75%
  RRT(%) 1.10: 0.51%
  RRT(%) 1.13: 0.19%
  RRT(%) 1.15: 0.41%
  RRT(%) 1.16: 0.60%
  RRT(%) 1.20: 0.07%
  Total impurities (%): 3.66%
[3]; 40° C./75% RH 7 d
  Content (%): 96.60%
  Properties: Dark yellow
  RRT(%) 0.86: 0.22%
  RRT(%) 0.89: 0.09%
  RRT(%) 0.94: 0.31%
  RRT(%) 0.97: 0.09%
  RRT(%) 1.04: 0.47%
  RRT(%) 1.07: 0.75%
  RRT(%) 1.10: 0.32%
  RRT(%) 1.13: 0.11%
  RRT(%) 1.15: 0.38%
  RRT(%) 1.16: 0.59%
  Total impurities (%): 3.40%
[3]; 40° C./75% RH, 4 and 7 days
  solid state stability: stable
[3]; 60° C. 4 d
  Content (%): 85.19%
  Properties: Dark yellow
  RRT(%) 0.86: 0.15%
  RRT(%) 0.89: 0.14%
  RRT(%) 0.94: 0.67%
  RRT(%) 0.97: 0.56%
  RRT(%) 1.04: 1.25%
  RRT(%) 1.07: 10.65%
  RRT(%) 1.10: 0.29%
  RRT(%) 1.13: 0.08%
  RRT(%) 1.15: 0.44%
  RRT(%) 1.16: 0.52%
  RRT(%) 1.20: 0.05%
  Total impurities (%): 14.81%
[3]; 60° C. 7 d
  Content (%): 75.90%
  Properties: Dark yellow
  RRT(%) 0.86: 0.11%
  RRT(%) 0.89: 0.07%
  RRT(%) 0.92: 0.22%
  RRT(%) 0.94: 0.63%
  RRT(%) 0.97: 0.66%
  RRT(%) 1.04: 1.28%
  RRT(%) 1.07: 19.89%
  RRT(%) 1.10: 0.21%
  RRT(%) 1.13: 0.05%
  RRT(%) 1.15: 0.38%
  RRT(%) 1.16: 0.51%
  RRT(%) 1.20: 0.09%
  Total impurities (%): 24.10%
[3]; [5]
  change in crystal form on storage: the crystal form has not changed
[3]; 60° C., 4 and 7 days
  change of impurities: the impurities increase obviously
[4]; 0.1M HCl
  Phenomenon: clear
  Solubility: ≥62.8 mg/mL
[4]; H2O
  Phenomenon: clear
  Solubility: ≥81.4 mg/mL
[4]; pH 4.5 buffer
  Phenomenon: clear
  Solubility: ≥43.8 mg/mL
[4]; pH 6.8 buffer
  Phenomenon: clear
  Solubility: ≥74.6 mg/mL
